In patent US9066965B1, “Purified limonin glucoside for prevention and treatment of chronic diseases” (The United States of America, as represented by the …, priority 2012, dated 2015):

Assays:
Type in all cases: in vivo, human
[1] = Complete blood cell count (hematological parameters); design: Monocytes / Eosinophil / Basophils / Platelets / WBC / Neutrophils / Lymphocytes: unit not given here
Method: Complete and differential cell counts were performed at the hematology laboratory of University of California Medical Center (UCDMC), Sacramento using Beckman Coulter LH 700.
(§1) Results are presented as means±SEM.

[2] = test system: alanine amino transferase (ALT); assay: Serum alanine amino transferase (CMP); details: 500 mg/d, 56 days
Method: CMP performed on serum samples at the chemistry laboratory of University of California Medical Center by using the Beckman Coulter DxC800. GGT and CKMB were determined in the EDTA plasma. GGT activity was determined by using Integra 400 Chemistry Analyzer, Roche Diagnostics. CKMB concentration was determined by using the Multiplex kits from Mesoscale Discovery (Gaithersburg, Md. 20877).
SAS PROC MIXED was used to fit the cross-over model (Littell R C, Milliken G A, Stroup W W, Wolfinger R D, Schabenberger O. SAS System for Mixed Models. Cay, N.C.: SAS Institute Inc.; 2006). Transformations were used when appropriate to stabilize the variances among the diets and periods. The fixed effects were order, diet, the interaction and the covariate; and the random effect was subjects within order. The test for order is a test for carry-over effect. […] Comparisons were made between the values at the end of placebo and LG treatments and using the baseline data as a covariate. Results are presented as means±SEM. Differences were considered statistically significant for P value<0.05.

[3] = Serum/plasma concentrations of inflammatory markers
Method: Plasma concentrations of epidermal growth factor (EGF), interleukin-13 (IL-13), interleukin-1 receptor antagonist (IL-1Ra), and tumor necrosis factor α (TNF α) were analyzed in EDTA plasma on a Sector Imager 2400 instrument using a multiplex kits from MSD (Meso-Scale Discovery, Gaithersburg, Md.). Concentrations of C reactive protein (CRP), and complement 3 and 4 (C3, C4) were analyzed in serum by using an Integra 400 Plus Chemistry Analyzer, (Roche Diagnostics Corp., Indianapolis, Ind.). Serum amyloid A (SAA), soluble intracellular adhesion molecule-1 (sICAM-1), and soluble vascular cell adhesion molecule-1 (sVCAM-1) were tested in serum on a Sector Imager 2400 instrument using a multiplex kit from MSD (Meso-Scale Discovery, Gaithersburg, Md.).
as §1

[4] = End LG, 500 mg/d, 56 days, n = 10, mean ± SEM
[5] = EDTA plasma, End LG, 500 mg/d, 56 days, n = 10, mean ± SEM
[6] = serum, End LG, 500 mg/d, 56 days, n = 10, mean ± SEM

In the case of `CC1(C)O[C@H]2CC(=O)OC[C@]23[C@H]2CC[C@@](C)([C@@H](O[C@@H]4O[C@H](CO)[C@@H](O)[C@H](O)[C@H]4O)c4ccoc4)[C@@]4(O[C@@H]4C(=O)O)[C@]2(C)C(=O)C[C@@H]13` [LG, limonin glucoside], the Basophils [1, 4] is reported as 0.03 ± 0.00, the “Basophils, % of WBC” value [1, 4] is reported as 0.47 ± 0.04 % of WBC and the Eosinophil [1, 4] is reported as 0.18 ± 0.03. For the same compound, the “Eosinophil, % of WBC” value [1, 4] was 3.32 ± 0.52 % of WBC, the Hematocrit [1, 4] was 41.47 ± 1.00% and the Hemoglobin [1, 4] was 13.94 ± 0.61 g/dL. For the same compound, the Lymphocytes [1, 4] was 1.80 ± 0.14, the “Lymphocytes, % of WBC” value [1, 4] was 33.01 ± 2.09 % of WBC and the MCH [1, 4] was 31.08 ± 0.39 pico grams. The MCHC [1, 4] was 33.98 ± 0.16%, the MCV [1, 4] was 91.44 ± 1.29 microns and the Monocytes [1, 4] was 0.42 ± 0.03. The “Monocytes, % of WBC” value [1, 4] was 7.79 ± 1.03 % of WBC, the Neutrophils [1, 4] was 3.14 ± 0.30 and the “Neutrophils, % of WBC” value [1, 4] was 55.41 ± 3.16 % of WBC. For the same compound, the Platelets [1, 4] was 229.00 ± 12.74, the RBC [1, 4] was 4.54 ± 0.13 × 10^−12/L and the RDW [1, 4] was 13.12 ± 0.13%. The WBC [1, 4] was 5.55 ± 0.38, the pH [1, 4] was 6.75 ± 0.27 and the “effect on hematological variables” value ([1]; vs end of placebo treatment, baseline as covariate) was “did not alter”. For the same compound, the Alanine amino trasferase ([2]; serum, End LG, n = 10, mean ± SEM) was 25.2 ± 5.08 U/L, the “decrease of serum alanine aminotransferase (ALT) activity” value ([2]; vs end of placebo treatment, p=0.041) was 13.1% and the EGF [3, 5] was 106.02 ± 52.55 pg/mL. The IL-1Ra [3, 5] was 194.93 ± 27.03 pg/mL, the IL-13 [3, 5] was 2.42 ± 0.27 pg/mL and the TNF a [3, 5] was 0.58 ± 0.20 pg/mL. For the same compound, the C4 [3, 6] was 0.29 ± 0.02 mg/mL, the CRP [3, 6] was 1.64 ± 0.25 µg/mL and the SAA [3, 6] was 4.06 ± 0.77 µg/mL. For the same compound, the sICAM-1 [3, 6] was 0.25 ± 0.02 µg/mL, the sVCAM-1 [3, 6] was 0.41 ± 0.04 µg/mL and the “effect on plasma EGF, IL-13, IL-1Ra, TNF α and serum CRP, SAA, sICAM-1, sVCAM-1, C4” value ([3]; vs end of placebo treatment) was “not altered”.
